Reference: patent US11959083B2, “Immunosuppression-reverting oligonucleotides inhibiting the expression of CD39” (Secarna Pharmaceuticals GmbH & Co. KG, priority 2016, dated 2024)
l = locked nucleic acid (LNA); d = 2'-deoxy (DNA)

What was measured:
Assay type in all cases: cell-based, human
hCD39 mRNA [1] = test: hCD39 mRNA knockdown efficacy screen in HDLM-2 cells (single dose, gymnotic delivery, QuantiGene Singleplex); set-up: key to Relative hCD39 mRNA expression (compared to non-treated cells): *: values are below detection limit; settings: 10 μM, 3 days; for Mean hCD39 mRNA expression normalized to HPRT1 relative to untreated control = 1: first screening round; for Relative hCD39 mRNA expression (compared to non-treated cells): second screening round, normalized to HPRT1; for Residual hCD39 mRNA expression relative to untreated cells (set as 1): third screening round
Protocol: (§1) FIGS. 2A to 2D depict hCD39 mRNA knockdown efficacy of hCD39 antisense oligonucleotides in human cancer cell lines HDLM-2 (human Hodgkin Lymphoma) in a first and second screening round (FIGS. 2A-1 and 2A-2) and 2B-1 and 2B-2 and A-172 (human glioblastoma) in a first and second screening round (FIGS. 2C-1 and 2C-2) and 2D-1 and 2D-2. HDLM-2 and A-172 cells were treated for 3 days with 10 μM of the respective antisense oligonucleotide. As negative control, cells were treated with neg1, an antisense oligonucleotide having the sequence CGTTTAGGCTATGTACTT (SEQ ID NO:99) (described in WO2014154843 A1). Residual hCD39 mRNA expression relative to untreated cells is depicted. Expression values were normalized to expression of the housekeeping gene HPRT1. Depicted is the mean of triplicate wells+/−SD.
(§2) FIGS. 6A-6B depicts a third screening round where further antisense oligonucleotides were designed. These antisense oligonucleotides were based on efficient antisense oligonucleotides from the first and second screening round. Therefore, hCD39 antisense oligonucleotides were tested in human cancer cell lines HDLM-2 (human Hodgkin's lymphoma) (FIG. 6A) and A-172 (human glioblastoma) (FIG. 6B). HDLM-2 and A-172 cells were treated for 3 days with 10 μM of the respective antisense oligonucleotide. […] Residual hCD39 mRNA expression relative to untreated cells (set as 1) is depicted.
(§3) In order to analyze the efficacy of hCD39 antisense oligonucleotides of the present invention with regard to the knockdown of hCD39 mRNA expression in cancer cell lines, HDLM-2 (human Hodgkin Lymphoma, DSMZ) and A-172 (human glioblastoma, ATCC) cells were treated with a single dose (concentration: 10 μM without addition of any transfection reagent; this process is called gymnotic delivery) of the respective antisense oligonucleotide as shown in FIG. 2A to 2D. hCD39 and HPRT1 mRNA expression was analyzed three days later using the QuantiGene Singleplex assay (Affymetrix) and hCD39 expression values were normalized to HPRT1 values. […] Values of the mean normalized mRNA expression of hCD39 compared to non-treated cells are listed for A-172 (Table 4 for first screening round and Table 5 for second screening round) and HDLM-2 cells (Table 6 for first screening round and Table 7 for second screening round) in the following:
(§4) For a third screening round, new antisense oligonucleotides were designed. These antisense oligonucleotides were based on efficient antisense oligonucleotides from the first screening round with modifications in length, exact position on mRNA and chemical modification pattern. Therefore, hCD39 antisense oligonucleotides were tested in human cancer cell lines (FIG. 6A, Table 10) HDLM-2 (human Hodgkin's lymphoma) and (FIG. 6B, Table 11) A-172 (human glioblastoma). HDLM-2 and A-172 cells were treated for 3 days with 10 μM of the respective antisense oligonucleotide. […] Residual hCD39 mRNA expression relative to untreated cells (set as 1) is depicted.

hCD39 mRNA [2] = test: IC50 determination / concentration-dependent hCD39 mRNA knockdown in HDLM-2 cells; settings: for mRNA inhibition: HDLM-2, 3 days; for IC50: HDLM-2 cells, hCD39 mRNA, 3 days
Protocol: HDLM-2 cells were treated for 3 days with the indicated concentration of the respective antisense oligonucleotide. Residual hCD39 expression is depicted compared to untreated control cells. hCD39 mRNA expression values were normalized to expression of the housekeeping gene HPRT1.
The antisense oligonucleotide A04040H (SEQ ID No. 3) that had shown potent activity in the first and second screening round was used as reference. HDLM-2 cells treated for 3 days with the indicated concentrations of the respective antisense oligonucleotide. hCD39 mRNA expression values were normalized to expression of the housekeeping gene HPRT1. Residual hCD39 mRNA expression relative to untreated cells (set as 100) is depicted. Depicted is the mean of triplicate wells+/−SD.
In a second experiment the concentration-dependency of effects and the IC50 values of hCD39 antisense oligonucleotides A04010H (SEQ ID No.14), A04016H (SEQ ID No.20), A04017H (SEQ ID No.21), A04020H (SEQ ID No. 24) and A04026H (SEQ ID No.30) were tested. […] HDLM-2 cells were treated with titrated amounts of the respective antisense oligonucleotide (concentrations: 10 μM, 3.3 μM, 1.1 μM, 370 nM, 120 nM, 41 nM, 14 nM, 4.5 nM). hCD39 mRNA expression was analyzed after three days of treatment. FIG. 5 and Table 9 depicts the concentration-dependent reduction of hCD39 mRNA expression by the selected hCD39 antisense oligonucleotides.
The hCD39 antisense oligonucleotides A04051H (SEQ ID No.88), A04052H (SEQ ID No.89), A04053H ([…]), A04056H (SEQ ID No.92), A04059H (SEQ ID No.94), A04060H (SEQ ID No.95), and A04061H (SEQ ID No.96) had shown potent single-dose activity in both HDLM-2 and A-172 cells. […] The antisense oligonucleotide A04040H that had shown potent activity in the first screening round was used as reference. hCD39 mRNA expression was analyzed after 3 days of treatment. FIG. 7 depicts the concentration-dependent reduction of hCD39 expression by hCD39 antisense oligonucleotides.

hCD39 mRNA [3] = test: hCD39 mRNA knockdown efficacy screen in A-172 cells (single dose, gymnotic delivery, QuantiGene Singleplex); settings: 10 μM, 3 days; for Mean hCD39 mRNA expression (relative to untreated cells set as 1): first screening round; for Mean hCD39 mRNA expression (relative to untreated cells set as 1) / Relative hCD39 mRNA expression (compared to non-treated cells): normalized to HPRT1; for Relative hCD39 mRNA expression (compared to non-treated cells): second screening round; for Residual hCD39 mRNA expression relative to untreated cells (set as 1): third screening round
Protocol: as §1, §2, §3, §4

[4] = first screening round (Table 8)

## +A*+C*C*C*T*G*A*G*T*T*G*T*A*A*C*+T (antisense ACCCTGAGTTGTAACT; sugars from the 5' end l2 d13 l1, all phosphorothioate, methylation of C not given here) [A04033H]
hCD39 mRNA [1]
  Mean hCD39 mRNA expression normalized to HPRT1 relative to untreated control = 1: 0.10
  Relative hCD39 mRNA expression (compared to non-treated cells): *
hCD39 mRNA [2]; 0.0045 μM, Table 8
  mRNA inhibition: 3.05%
hCD39 mRNA [2]; 0.013 μM, Table 8
  mRNA inhibition: −3.30%
hCD39 mRNA [2]; 0.04 μM, Table 8
  mRNA inhibition: 24.10%
hCD39 mRNA [2]; 0.12 μM, Table 8
  mRNA inhibition: 46.98%
hCD39 mRNA [2]; 0.4 μM, Table 8
  mRNA inhibition: 70.74%
hCD39 mRNA [2]; 1.1 μM, Table 8
  mRNA inhibition: 83.81%
hCD39 mRNA [2]; 3.3 μM, Table 8
  mRNA inhibition: 92.79%
hCD39 mRNA [2]; 10 μM, Table 8
  mRNA inhibition: 98.02%
hCD39 mRNA [2]; [4]
  IC50: 119 nM
hCD39 mRNA [3]
  Mean hCD39 mRNA expression (relative to untreated cells set as 1): 0.28
  Relative hCD39 mRNA expression (compared to non-treated cells): 0.14

## +A*+G*+A*G*T*G*C*C*T*G*A*T*C*+C*+T*+T (antisense AGAGTGCCTGATCCTT; sugars from the 5' end l3 d10 l3, all phosphorothioate, methylation of C not given here) [A04051H]
hCD39 mRNA [1]
  Residual hCD39 mRNA expression relative to untreated cells (set as 1): 0.02
hCD39 mRNA [2]; 0.45 nM, Table 12
  mRNA inhibition: 30.83%
hCD39 mRNA [2]; 1.3 nM, Table 12
  mRNA inhibition: 15.36%
hCD39 mRNA [2]; 4 nM, Table 12
  mRNA inhibition: 23.62%
hCD39 mRNA [2]; 12 nM, Table 12
  mRNA inhibition: 23.14%
hCD39 mRNA [2]; 40 nM, Table 12
  mRNA inhibition: 43.66%
hCD39 mRNA [2]; 110 nM, Table 12
  mRNA inhibition: 70.34%
hCD39 mRNA [2]; 330 nM, Table 12
  mRNA inhibition: 86.77%
hCD39 mRNA [2]; 1000 nM, Table 12
  mRNA inhibition: 92.82%
hCD39 mRNA [2]; third screening round (Table 12)
  IC50: 69 nM
hCD39 mRNA [3]
  Residual hCD39 mRNA expression relative to untreated cells (set as 1): 0.34

## +C*+A*+G*T*C*A*A*T*C*C*T*G*C*+T*+C*+A (antisense CAGTCAATCCTGCTCA; sugars from the 5' end l3 d10 l3, all phosphorothioate, methylation of C not given here) [A04039H]
hCD39 mRNA [1]
  Mean hCD39 mRNA expression normalized to HPRT1 relative to untreated control = 1: 0.06
  Relative hCD39 mRNA expression (compared to non-treated cells): *
hCD39 mRNA [2]; 0.0045 μM, Table 8
  mRNA inhibition: 11.56%
hCD39 mRNA [2]; 0.013 μM, Table 8
  mRNA inhibition: 14.30%
hCD39 mRNA [2]; 0.04 μM, Table 8
  mRNA inhibition: 20.47%
hCD39 mRNA [2]; 0.12 μM, Table 8
  mRNA inhibition: 44.03%
hCD39 mRNA [2]; 0.4 μM, Table 8
  mRNA inhibition: 71.25%
hCD39 mRNA [2]; 1.1 μM, Table 8
  mRNA inhibition: 85.22%
hCD39 mRNA [2]; 3.3 μM, Table 8
  mRNA inhibition: 92.53%
hCD39 mRNA [2]; 10 μM, Table 8
  mRNA inhibition: 96.54%
hCD39 mRNA [2]; [4]
  IC50: 177 nM
hCD39 mRNA [3]
  Mean hCD39 mRNA expression (relative to untreated cells set as 1): 0.27
  Relative hCD39 mRNA expression (compared to non-treated cells): 0.14

## +T*+A*G*A*C*A*T*T*G*T*A*G*+T*+C*+C (antisense TAGACATTGTAGTCC; sugars from the 5' end l2 d10 l3, all phosphorothioate, methylation of C not given here) [A04009H]
hCD39 mRNA [1]
  Mean hCD39 mRNA expression normalized to HPRT1 relative to untreated control = 1: 0.15
  Relative hCD39 mRNA expression (compared to non-treated cells): 0.15
hCD39 mRNA [3]
  Mean hCD39 mRNA expression (relative to untreated cells set as 1): 0.28
  Relative hCD39 mRNA expression (compared to non-treated cells): 0.29

## +T*+G*+A*T*A*G*C*C*T*T*G*C*+A*+G*+A (antisense TGATAGCCTTGCAGA; sugars from the 5' end l3 d9 l3, all phosphorothioate, methylation of C not given here) [A04014H]
hCD39 mRNA [1]
  Mean hCD39 mRNA expression normalized to HPRT1 relative to untreated control = 1: 0.17
  Relative hCD39 mRNA expression (compared to non-treated cells): 0.17
hCD39 mRNA [3]
  Mean hCD39 mRNA expression (relative to untreated cells set as 1): 0.27
  Relative hCD39 mRNA expression (compared to non-treated cells): 0.27

## +T*+T*+G*A*A*C*A*C*T*G*C*+G*+A*+T (antisense TTGAACACTGCGAT; sugars from the 5' end l3 d8 l3, all phosphorothioate, methylation of C not given here) [A04003H]
hCD39 mRNA [1]
  Mean hCD39 mRNA expression normalized to HPRT1 relative to untreated control = 1: 0.20
  Relative hCD39 mRNA expression (compared to non-treated cells): 0.20
hCD39 mRNA [3]
  Mean hCD39 mRNA expression (relative to untreated cells set as 1): 0.18
  Relative hCD39 mRNA expression (compared to non-treated cells): 0.18

## +T*+T*+G*C*A*G*A*G*C*A*T*T*+A*+T*+C (antisense TTGCAGAGCATTATC; sugars from the 5' end l3 d9 l3, all phosphorothioate, methylation of C not given here) [A04007H]
hCD39 mRNA [1]
  Mean hCD39 mRNA expression normalized to HPRT1 relative to untreated control = 1: 0.23
  Relative hCD39 mRNA expression (compared to non-treated cells): 0.23
hCD39 mRNA [3]
  Mean hCD39 mRNA expression (relative to untreated cells set as 1): 0.53
  Relative hCD39 mRNA expression (compared to non-treated cells): 0.53

## +T*+T*+T*G*T*G*T*G*A*G*A*G*+C*+T*+T (antisense TTTGTGTGAGAGCTT; sugars from the 5' end l3 d9 l3, all phosphorothioate, methylation of C not given here) [A04058H]
hCD39 mRNA [1]
  Residual hCD39 mRNA expression relative to untreated cells (set as 1): 0.01
hCD39 mRNA [3]
  Residual hCD39 mRNA expression relative to untreated cells (set as 1): 0.25

## +T*G*+T*A*G*A*G*G*C*T*C*C*C*+C*+C (antisense TGTAGAGGCTCCCCC; sugars from the 5' end l1 d1 l1 d10 l2, all phosphorothioate, methylation of C not given here) [A04006H]
hCD39 mRNA [1]
  Mean hCD39 mRNA expression normalized to HPRT1 relative to untreated control = 1: 0.20
  Relative hCD39 mRNA expression (compared to non-treated cells): 0.20
hCD39 mRNA [3]
  Mean hCD39 mRNA expression (relative to untreated cells set as 1): 0.19
  Relative hCD39 mRNA expression (compared to non-treated cells): 0.20
